Experimental data: patent US11779015B2, “Pesticide compositions” (FUNDACIÓ CENTRE DE REGULACIÓ GENÒMICA, priority 2017, dated 2023)
Entries after “also recorded” stand apart in the source; their conditions may differ.

Assays:
D. suzukii = test: Airborne toxicity petri dish assay, adult flies exposed to VOC vapours (FIG. 1A); assay type: in vivo, Drosophila suzukii; conditions: for time to 100% dead flies: monitored over 1 hour
Protocol: A selection of compounds according to the invention were tested for airborne toxicity to D. suzukii by exposing a population of adult D. suzukii flies to the vapours of the compound using an experimental set up as shown on FIG. 1A.
In particular, adult flies 2 were exposed to compositions 4 comprising one or more of a selection of VOCs according to the invention or a comparative example, in a petri dish 6. The compositions 4 were loaded onto the lid 6a of the petri dish 6 and the flies were placed into the base 6b of the dish, which was then covered by a sheet of plastic mesh netting 8 to avoid direct contact of the flies 2 with the compositions 4, before replacing the lid 6a.
[…] Four drops of 50 microlitres were dispensed into reinforcement rings (not shown) fixed on the inner surface of the petri dish lid 6a.
The experimental set up used was as described in relation to FIG. 1A.
The data is shown as averages±SEM based on 3 to 6 trials for each condition.

adult D. suzukii flies = test: Petri dish assay, dose-range 0.3 to 10% vol in paraffin oil, 24 h exposure (FIG. 3E); assay type: in vivo, Drosophila suzukii; conditions: for Minimal concentration (%) to induce 100% morbidity/mortality in D. suzukii adults: paraffin oil, 24 h exposure (Example 2); for concentration at which toxicity is displayed (as low as): dose-range 0.3 to 10% vol in paraffin oil, 24 h exposure, adult D. suzukii
Description: Data are represented as mean proportion of dead flies, with counts separated between male (as indicated by ‘M’) and female (as indicated by ‘F’) flies. […] Data points marked NaN were not tested at the indicated concentration. The MEC column summarises the minimal effective concentration to induce 100% morbidity/mortality to adult D. suzukii flies.

[1] = test system: honeybees (Apis mellifera); test: Airborne toxicity on honeybees in the petri dish assay; assay type: in vivo; conditions: paraffin oil, 24 hours
[2] = VOC at 10 M in paraffin oil, vapour exposure, 1 hour
[3] = VOC at 10 M in paraffin oil, vapour exposure

Compound | airborne toxicity/lethality in the initial screen with a high dose (words) (D. suzukii; [2]) | further results
CCC=C(C)C=O [2-methyl-2-pentenal] | showed toxicity | –
CC/C=C/C=O [(E)-2-pentenal] | showed toxicity | –
O=C(OCc1ccccc1)c1ccccc1 [benzyl benzoate, Benzyl benzoate, reference compound] | did not cause mortality | airborne toxicity/lethality in the initial screen with a high dose (words) (D. suzukii; VOC at 10 M in paraffin oil, vapour exposure, 1 hour, listed as Benzyl benzoate): not toxic
CC/C=C\CC/C=C/C=O [(E)-2,(Z)-6-nonadienal, trans-2,cis-6-Nonadienal] | showed toxicity | Minimal concentration (%) to induce 100% morbidity/mortality in D. suzukii adults (adult D. suzukii flies): 3%; Percentage of dead honey bee adults (%) ([1]; applied concentration 3%): 10%
CCCCCCCCC/C=C/C=O [E-2-dodecenal] | showed toxicity | –
CCCCCC(C)=O [2-heptanone] | showed toxicity | –
CCCCCCC/C=C/C=O [E-2-decenal] | – | Percentage of dead honey bee adults (%) ([1]; applied concentration 2%): 0%
CCCC/C=C/C=O [(E)-2-heptenal] | showed toxicity | Minimal concentration (%) to induce 100% morbidity/mortality in D. suzukii adults (adult D. suzukii flies): 3%; Percentage of dead honey bee adults (%) ([1]; applied concentration 3%): 0%
CCCCCCCC/C=C/C=O [E-2-undecenal] | showed toxicity | –
CCCCCCC=O [heptanal, Heptanal] | showed toxicity | –
CCCCCC/C=C/C=O [E-2-nonenal] | showed toxicity | concentration at which toxicity is displayed (as low as) (adult D. suzukii flies): 2%
CCCCCCCC=O [octanal, Octanal] | showed toxicity | –
COC(=O)C1CCCCC1 [methyl cyclohexanoate] | showed toxicity | –
CCCC/C=C/C=C/C=O [(E,E)-2,4-nonadienal] | showed toxicity | concentration at which toxicity is displayed (as low as) (adult D. suzukii flies): 2%; Minimal concentration (%) to induce 100% morbidity/mortality in D. suzukii adults (adult D. suzukii flies): 2%; Percentage of dead honey bee adults (%) ([1]; applied concentration 2%): 0%; Percentage of dead honey bee adults (%) ([1]; applied concentration 5%): 0%
CC=CC(=O)CC [4-hexen-3-one] | showed toxicity | Minimal concentration (%) to induce 100% morbidity/mortality in D. suzukii adults (adult D. suzukii flies): 3%; Percentage of dead honey bee adults (%) ([1]; applied concentration 3%): 0%
O=C(OCc1ccccc1)c1ccccc1O [benzyl salicylate, Benzyl salicylate, reference compound] | did not cause mortality; also recorded: not toxic | –
CC(=O)c1ccccc1 [acetophenone, Acetophenone] | showed toxicity | –
CCCCOC(=O)C1CCCC1 [butyl cyclopentanecarboxylate, Butyl cyclopentanecarboxylate] | showed toxicity | Minimal concentration (%) to induce 100% morbidity/mortality in D. suzukii adults (adult D. suzukii flies): 3%; Percentage of dead honey bee adults (%) ([1]; applied concentration 3%): 0%

Compound | airborne toxicity/lethality in the initial screen with a high dose (words) (D. suzukii; [2]) | further results
COC(=O)c1ccccc1O [methyl salicylate] | showed toxicity | –
CCCCCOC(=O)c1ccccc1 [pentyl benzoate, Pentyl benzoate] | showed toxicity | time to 100% dead flies (D. suzukii; [3]): an hour
O=Cc1ccccc1 [benzaldehyde, Benzaldehyde] | showed toxicity | –
CCCCCCO [1-hexanol] | showed toxicity | –
CC/C=C/CCO [E-3-hexenol] | – | airborne toxicity/lethality in the initial screen with a high dose (words) (D. suzukii; in vivo): showed toxicity
CCCCCCCCC=O [nonanal, Nonanal] | showed toxicity | Minimal concentration (%) to induce 100% morbidity/mortality in D. suzukii adults (adult D. suzukii flies): 3%; Percentage of dead honey bee adults (%) ([1]; applied concentration 3%): 0%
CCCCCCCCCC/C=C/C=O [E-2-tridecenal] | showed toxicity | time to 100% dead flies (D. suzukii; [3]): an hour
CCCCC/C=C/C=O [E-2-octenal] | showed toxicity | concentration at which toxicity is displayed (as low as) (adult D. suzukii flies): 2%
C=CCOC(=O)C1=CCCC1 [allyl 1-cyclopentene-1-carboxylate, Allyl 1-cyclopentene-1-carboxylate] | showed toxicity | concentration at which toxicity is displayed (as low as) (adult D. suzukii flies): 0.3%; Minimal concentration (%) to induce 100% morbidity/mortality in D. suzukii adults (adult D. suzukii flies): 0.5%; Percentage of dead honey bee adults (%) ([1]; applied concentration 1%): 0%
C=CC(C)(CCC=C(C)C)OC(=O)c1ccccc1 (centres unmarked) [linalyl benzoate, Linalyl benzoate, reference compound] | did not cause mortality; also recorded: not toxic | –
CCCOC(=O)c1ccccc1 [propyl benzoate, Propyl benzoate] | showed toxicity | –
CC1=C(O)C(=O)OC1C (centres unmarked) [4,5-Dimethyl-3-hydroxy-2,5-dihydrofuran-2-one, reference compound] | showed toxicity | –
CCOC(=O)Cc1ccccc1 [ethyl phenyl acetate, Ethyl phenylacetate] | showed toxicity | time to 100% dead flies (D. suzukii; [3]): half an hour
CCCCC=O [pentanal, Pentanal] | showed toxicity | –
COC(=O)C1CCCC1 [methyl cyclopentanecarboxylate, Methyl cyclopentanecarboxylate] | showed toxicity | –
CCC(C)C(=O)OC (centres unmarked) [methyl 2-methylbutyrate, Methyl 2-methyl butyrate] | showed toxicity | –
CCOC(=O)c1ccccc1 [ethyl benzoate, Ethyl benzoate] | showed toxicity | –
CC(C)OC(=O)C1CCCC1 [isopropyl cyclopentanecarboxylate, Isopropyl cyclopentanecarboxylate] | showed toxicity | –
